Experimental data published in PubChem BioAssay (NCI).
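These data come from cells grown in 96-well plates and exposed to compound for 48 hours at five concentrations. GI50 marks 50% less growth. Definition used: TGI = concentration required for complete inhibition of growth.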

Assays:
Assay in all cases: NCI tumour cell line growth inhibition, 48 h; in the data active = GI50 below about 0.43 µM; inactive = the rest
A549 NSCLC = tested on: A549 NSCLC
LOX IMVI melanoma = tested on: LOX IMVI melanoma
OVCAR-3 ovarian = tested on: OVCAR-3 ovarian
SF-539 CNS = tested on: SF-539 CNS
SK-OV-3 ovarian = tested on: SK-OV-3 ovarian
HOP-92 NSCLC = tested on: HOP-92 NSCLC
NCI-H226 lung = tested on: NCI-H226 lung
UACC-257 melanoma = tested on: UACC-257 melanoma
NCI/ADR-RES ovarian = tested on: NCI/ADR-RES ovarian
NCI-H460 lung = tested on: NCI-H460 lung
786-0 renal = tested on: 786-0 renal
T-47D breast = tested on: T-47D breast
MDA-MB-231 breast = tested on: MDA-MB-231 breast
CCRF-CEM leukemia = tested on: CCRF-CEM leukemia
HCT-15 colon = tested on: HCT-15 colon
A498 renal = tested on: A498 renal
EKVX NSCLC = tested on: EKVX NSCLC
SW-620 colon = tested on: SW-620 colon
ACHN renal = tested on: ACHN renal
SNB-75 CNS = tested on: SNB-75 CNS
SF-268 CNS = tested on: SF-268 CNS
UACC-62 melanoma = tested on: UACC-62 melanoma
IGROV1 ovarian = tested on: IGROV1 ovarian
MCF7 breast = tested on: MCF7 breast
HOP-62 NSCLC = tested on: HOP-62 NSCLC
HCC-2998 colon = tested on: HCC-2998 colon
RPMI-8226 leukemia = tested on: RPMI-8226 leukemia
SR leukemia = tested on: SR leukemia
PC-3 prostate = tested on: PC-3 prostate
SF-295 CNS = tested on: SF-295 CNS
MDA-MB-435 = tested on: MDA-MB-435
CAKI-1 renal = tested on: CAKI-1 renal
MOLT-4 leukemia = tested on: MOLT-4 leukemia
OVCAR-4 ovarian = tested on: OVCAR-4 ovarian
SNB-19 CNS = tested on: SNB-19 CNS
NCI-H23 lung = tested on: NCI-H23 lung
MALME-3M melanoma = tested on: MALME-3M melanoma
NCI-H522 lung = tested on: NCI-H522 lung
COLO 205 colon = tested on: COLO 205 colon
HS 578T breast = tested on: HS 578T breast
HL-60(TB) leukemia = tested on: HL-60(TB) leukemia
HT29 colon = tested on: HT29 colon
OVCAR-8 ovarian = tested on: OVCAR-8 ovarian
U251 CNS = tested on: U251 CNS
OVCAR-5 ovarian = tested on: OVCAR-5 ovarian
SN12C renal = tested on: SN12C renal
KM12 colon = tested on: KM12 colon
SK-MEL-28 melanoma = tested on: SK-MEL-28 melanoma
SK-MEL-5 melanoma = tested on: SK-MEL-5 melanoma
BT-549 breast = tested on: BT-549 breast
DU-145 prostate = tested on: DU-145 prostate
M14 melanoma = tested on: M14 melanoma
SK-MEL-2 melanoma = tested on: SK-MEL-2 melanoma
HCT-116 colon = tested on: HCT-116 colon
TK-10 renal = tested on: TK-10 renal
K-562 leukemia = tested on: K-562 leukemia
UO-31 renal = tested on: UO-31 renal

O=C(CCCCCCNC(=O)C(O)(O)C(F)(F)F)Nc1ccc(Cl)cc1
inactive: GI50 (A549 NSCLC) 9.56 µM | GI50 (LOX IMVI melanoma) 4.07 µM | GI50 (OVCAR-3 ovarian) 3.83 µM | GI50 (SF-539 CNS) 8.85 µM | GI50 (SK-OV-3 ovarian) 5.56 µM | GI50 (HOP-92 NSCLC) 1.06 µM | GI50 (NCI-H226 lung) 9.49 µM | GI50 (UACC-257 melanoma) 7.85 µM | GI50 (NCI/ADR-RES ovarian) 6.16 µM | GI50 (NCI-H460 lung) 4.59 µM | GI50 (786-0 renal) 9.48 µM | GI50 (T-47D breast) 5.76 µM | GI50 (MDA-MB-231 breast) 5.2 µM | GI50 (CCRF-CEM leukemia) 2.73 µM | GI50 (HCT-15 colon) 8.18 µM | GI50 (A498 renal) 1.38 µM | GI50 (EKVX NSCLC) 11.2 µM | GI50 (SW-620 colon) 4.02 µM | GI50 (ACHN renal) 6.01 µM | GI50 (SNB-75 CNS) 8.76 µM | GI50 (SF-268 CNS) 7.27 µM | GI50 (UACC-62 melanoma) 3.19 µM | GI50 (IGROV1 ovarian) 5.11 µM | GI50 (MCF7 breast) 10.8 µM | GI50 (HOP-62 NSCLC) 7.75 µM | GI50 (HCC-2998 colon) 7.62 µM | GI50 (RPMI-8226 leukemia) 3.46 µM | GI50 (SR leukemia) 2.44 µM | GI50 (PC-3 prostate) 5.01 µM | GI50 (SF-295 CNS) 5.77 µM | GI50 (MDA-MB-435) 7.13 µM | GI50 (CAKI-1 renal) 8.98 µM | GI50 (MOLT-4 leukemia) 2.87 µM | GI50 (OVCAR-4 ovarian) 15.7 µM | GI50 (SNB-19 CNS) 7.56 µM | GI50 (NCI-H23 lung) 7.08 µM | GI50 (MALME-3M melanoma) 2.83 µM | GI50 (NCI-H522 lung) 4.68 µM | GI50 (COLO 205 colon) 5.83 µM | GI50 (HS 578T breast) 3.68 µM | GI50 (HL-60(TB) leukemia) 3.64 µM | GI50 (HT29 colon) 6.28 µM | GI50 (OVCAR-8 ovarian) 3.5 µM | GI50 (U251 CNS) 4.91 µM | GI50 (OVCAR-5 ovarian) 4.26 µM | GI50 (SN12C renal) 7.66 µM | GI50 (KM12 colon) 7.92 µM | GI50 (SK-MEL-28 melanoma) 5.4 µM | GI50 (SK-MEL-5 melanoma) 5.07 µM | GI50 (BT-549 breast) 6.72 µM | GI50 (DU-145 prostate) 8.13 µM | GI50 (M14 melanoma) 9.99 µM | GI50 (SK-MEL-2 melanoma) 5.41 µM | GI50 (HCT-116 colon) 1.59 µM | GI50 (TK-10 renal) 1.55 µM | GI50 (K-562 leukemia) 1.82 µM | GI50 (UO-31 renal) 5.25 µM
34.3 µM: TGI (SK-MEL-28 melanoma)
16.3 µM: TGI (SW-620 colon)
8.94 µM: TGI (LOX IMVI melanoma)
22 µM: TGI (HCC-2998 colon) | TGI (MALME-3M melanoma)
34.2 µM: TGI (NCI-H23 lung)
13.1 µM: TGI (SF-295 CNS)
35.6 µM: TGI (SN12C renal)
28.2 µM: TGI (ACHN renal)
21 µM: TGI (U251 CNS)
24.5 µM: TGI (SF-268 CNS)
10.1 µM: TGI (OVCAR-3 ovarian)
26 µM: TGI (SK-OV-3 ovarian)
9.28 µM: TGI (UACC-62 melanoma)
15.1 µM: TGI (COLO 205 colon)
20.9 µM: TGI (OVCAR-5 ovarian)
19.8 µM: TGI (IGROV1 ovarian) | TGI (NCI-H522 lung)
8.39 µM: TGI (HOP-92 NSCLC)
10 µM: TGI (SK-MEL-5 melanoma)
27.3 µM: TGI (MDA-MB-231 breast)
23.7 µM: TGI (UO-31 renal)
17.6 µM: TGI (SK-MEL-2 melanoma)
12.5 µM: TGI (A498 renal)
30.1 µM: TGI (HS 578T breast)
30.9 µM: TGI (SNB-19 CNS)
35 µM: TGI (BT-549 breast)
28.7 µM: TGI (NCI/ADR-RES ovarian)
> 36.8 µM: TGI (A549 NSCLC) | TGI (SF-539 CNS) | TGI (NCI-H226 lung) | TGI (UACC-257 melanoma) | TGI (NCI-H460 lung) | TGI (786-0 renal) | TGI (T-47D breast) | TGI (CCRF-CEM leukemia) | TGI (HCT-15 colon) | TGI (EKVX NSCLC) | TGI (SNB-75 CNS) | TGI (MCF7 breast) | TGI (HOP-62 NSCLC) | TGI (RPMI-8226 leukemia) | TGI (SR leukemia) | TGI (PC-3 prostate) | TGI (MDA-MB-435) | TGI (CAKI-1 renal) | TGI (MOLT-4 leukemia) | TGI (OVCAR-4 ovarian) | TGI (HL-60(TB) leukemia) | TGI (HT29 colon) | TGI (OVCAR-8 ovarian) | TGI (KM12 colon) | TGI (DU-145 prostate) | TGI (M14 melanoma) | TGI (HCT-116 colon) | TGI (TK-10 renal) | TGI (K-562 leukemia)
